Test results as given in the supplement of paper PMC11281043.

Columns and labels:
Details in all cases: exposure: 6-8 hpf to 5 dpf, scored at 6 dpf
Danio rerio embryo/larva [1] = test: BMC edema; higher = less potent
Procedure: (§1)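 Zebrafish embryos (with chorion) were exposed from 6-8 hpf to each PFAS (8-point half-log series, top concentration up to 100 uM, 0.4% DMSO, sealed plates, 26 C; n = 6 embryos per concentration), rinsed at 5 dpf and scored at 6 dpf by two blinded observers for mortality, hatching and malformations. Endpoint scores are the % of living larvae affected (dead larvae excluded; […]). Curves were fitted with tcpl (cutoff 16%), and the BMC is the concentration at a benchmark response of 21.6%.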

Danio rerio embryo/larva [2] = test: BMC any abnormality; max tested concentration (log10 uM): 2; higher = less potent
Procedure: as §1

Danio rerio embryo/larva [3] = test: max % larvae unhatched across tested concentrations; max tested concentration (log10 uM): 2; higher = more toxic
Danio rerio embryo/larva [4] = test: max % larvae with any abnormality across tested concentrations; max tested concentration (log10 uM): 2; higher = more toxic; extreme values may be limits of the assay
Danio rerio embryo/larva [5] = test: BMC swim bladder non-inflation; higher = less potent
Procedure: as §1

Danio rerio embryo/larva [6] = test: BMC abnormal position; higher = less potent
Procedure: as §1

Danio rerio embryo/larva [7] = test: BMC mortality; max tested concentration (log10 uM): 2; higher = less potent
Procedure: as §1

Danio rerio embryo/larva [8] = test: max % larvae dead across tested concentrations; max tested concentration (log10 uM): 2; higher = more toxic; extreme values may be limits of the assay
Danio rerio embryo/larva [9] = test: BMC craniofacial defects; higher = less potent
Procedure: as §1

Danio rerio embryo/larva [10] = test: max % larvae dead across tested concentrations; max tested concentration (log10 uM): 1.60206; higher = more toxic; extreme values may be limits of the assay
Danio rerio embryo/larva [11] = test: max % larvae unhatched across tested concentrations; max tested concentration (log10 uM): 1.60206; higher = more toxic
Danio rerio embryo/larva [12] = test: max % larvae with any abnormality across tested concentrations; max tested concentration (log10 uM): 1.60206; higher = more toxic; extreme values may be limits of the assay
[13] = max tested concentration (log10 uM): 2
[14] = max tested concentration (log10 uM): 0.477121
[15] = max tested concentration (log10 uM): 1
[16] = max tested concentration (log10 uM): 1.47712

SMILES	BMC edema (Danio rerio embryo/larva [1]; [13]) [µM]	BMC any abnormality (Danio rerio embryo/larva [2]) [µM]	max % larvae unhatched across tested concentrations (Danio rerio embryo/larva [3]) [%]	max % larvae (Danio rerio embryo/larva [4]) [%]	BMC swim bladder non-inflation (Danio rerio embryo/larva [5]; [13]) [µM]	BMC abnormal position (Danio rerio embryo/larva [6]; [13]) [µM]	BMC mortality (Danio rerio embryo/larva [7]) [µM]	max % larvae dead across tested concentrations (Danio rerio embryo/larva [8]) [%]	max % larvae dead across tested concentrations (Danio rerio embryo/larva [10]) [%]	max % larvae unhatched across tested concentrations (Danio rerio embryo/larva [11]) [%]	max % larvae (Danio rerio embryo/larva [12]) [%]	further results
CC(C)(C)C(=O)CC(=O)C(F)(F)C(F)(F)C(F)(F)F [(Heptafluorobutanoyl)pivaloylmethane]	25.6	23.4	0	100	23	33.1	31.2	58.3	–	–	–	BMC craniofacial defects (Danio rerio embryo/larva [9]; [13]): 26.6 µM
FC(F)(F)C(F)(F)C(F)(F)C(F)(F)C(F)(F)C(F)(F)C(F)(F)C(F)(F)CCS [2-(Perfluorooctyl)ethanthiol]	–	–	–	–	–	–	–	–	0	0	10.4	–
NS(=O)(=O)C(F)(F)C(F)(F)C(F)(F)C(F)(F)C(F)(F)C(F)(F)F [Perfluorohexanesulfonamide]	–	1.45	0	100	–	–	–	–	–	–	–	BMC edema (Danio rerio embryo/larva [1]; [14]): 1.66 µM; BMC swim bladder non-inflation (Danio rerio embryo/larva [5]; [14]): 2.28 µM; BMC abnormal position (Danio rerio embryo/larva [6]; [14]): 2.67 µM; BMC craniofacial defects (Danio rerio embryo/larva [9]; [14]): 2.4 µM
COC(=O)C(F)(F)C(F)(F)OC(F)(C(F)(F)F)C(F)(F)OC(F)=C(F)F (centres undefined) [Methyl perfluoro(3-(1-ethenyloxypropan-2-yloxy)propanoate)]	–	–	–	–	–	–	–	–	0	0	8.33	–
O=S(=O)(O)C(F)(F)C(F)(F)C(F)(F)C(F)(F)C(F)(F)C(F)(F)F [Perfluorohexanesulfonic acid]	31.7	30.2	0	100	34.1	90.6	–	–	–	–	–	BMC craniofacial defects (Danio rerio embryo/larva [9]; [13]): 78.9 µM
O=C(O)C(F)(F)OC(F)(F)C(F)(F)OC(F)(F)C(F)(F)OC(F)(F)C(F)(F)C(F)(F)C(F)(F)F [Perfluoro-3,6,9-trioxatridecanoic acid]	–	2.47	0	100	–	–	7.79	100	–	–	–	BMC edema (Danio rerio embryo/larva [1]; [15]): 3.13 µM; BMC swim bladder non-inflation (Danio rerio embryo/larva [5]; [15]): 1.3 µM; BMC abnormal position (Danio rerio embryo/larva [6]; [15]): 8.04 µM
CO[Si](C)(CCC(F)(F)C(F)(F)C(F)(F)C(F)(F)C(F)(F)C(F)(F)F)OC [Dimethoxymethyl((perfluorohexyl)ethyl)silane]	–	–	–	–	–	–	–	–	0	0	0	–
FC(F)(F)C(F)(F)C(F)(F)C(F)(F)C(F)(F)C(F)(F)C(F)(F)CCI [1-Iodo-1H,1H,2H,2H-perfluorononane]	–	–	–	–	–	–	–	–	16.7	0	16.7	–
C=C(C)C(=O)OCC(F)(F)C(F)(F)C(F)(F)C(F)(F)C(F)(F)C(F)(F)C(F)(F)F [(Perfluoroheptyl)methyl methacrylate]	–	–	–	–	–	–	–	–	0	0	0	–
O=C(O)C(F)(F)C(F)(F)C(F)(F)C(F)(F)C(F)(F)C(F)(F)C(F)(F)C(F)(F)Cl [9-Chloro-perfluorononanoic acid]	17.5	8.75	0	100	6.38	80.3	31.1	100	–	–	–	BMC craniofacial defects (Danio rerio embryo/larva [9]; [13]): 31.1 µM
FC(F)(F)C(F)(C(F)(F)F)C(F)(F)C(F)(F)CC1CO1 (centres undefined) [3-(Perfluoro-3-methylbutyl)-1,2-propenoxide]	–	–	–	–	–	–	–	–	0	0	0	–
O=C(O)C(F)(F)C(F)(F)C(F)(F)C(F)(F)C(F)(F)C(F)(F)C(F)(F)C(F)(F)F [Perfluorononanoic acid]	28	25.5	0	100	25.5	87.8	73.9	75	–	–	–	–
FC(F)(F)C(F)(F)C(F)(F)C(F)(F)C(F)(F)C(F)(F)CCS [2-(Perfluorohexyl)ethanethiol]	–	–	–	–	–	–	–	–	0	0	16.7	–
O=S(=O)(O)C(F)(F)C(F)(F)C(F)(F)C(F)(F)C(F)(F)C(F)(F)C(F)(F)C(F)(F)F [Perfluorooctanesulfonic acid]	–	7.48	0	100	–	–	9.38	100	–	–	–	BMC edema (Danio rerio embryo/larva [1]; [15]): 8.58 µM; BMC swim bladder non-inflation (Danio rerio embryo/larva [5]; [15]): 8.02 µM; BMC abnormal position (Danio rerio embryo/larva [6]; [15]): 9.2 µM; BMC craniofacial defects (Danio rerio embryo/larva [9]; [15]): 8.4 µM
O=P(O)(O)CCC(F)(F)C(F)(F)C(F)(F)C(F)(F)C(F)(F)C(F)(F)C(F)(F)C(F)(F)F [((Perfluorooctyl)ethyl)phosphonic acid]	1.37	0.578	0	100	0.92	63.6	10.4	100	–	–	–	–
O=C(O)CCC(F)(F)C(F)(F)C(F)(F)C(F)(F)C(F)(F)F [2H,2H,3H,3H-Perfluorooctanoic acid]	–	8.77	0	100	–	–	24.8	100	–	–	–	BMC edema (Danio rerio embryo/larva [1]; [16]): 9.38 µM; BMC swim bladder non-inflation (Danio rerio embryo/larva [5]; [16]): 9.28 µM; BMC abnormal position (Danio rerio embryo/larva [6]; [16]): 12.2 µM
